Results: ChEMBL document CHEMBL3763155 (Bioorg Med Chem Lett, 2016)

What was measured:
[1] = Displacement of 125I-[Sar1,Leu8] angiotensin-2 from rat type 1 angiotensin-2 receptor expressed in African green monkey COS7 cells after 24 hrs; assay type: cell-based; settings: cos-7
[2] = biological target: T1, Type-2 angiotensin II receptor (Homo sapiens, UniProt P50052); experiment: Binding affinity to type-2 angiotensin-2 receptor (unknown origin)
T1 sequence (P50052 whole entry): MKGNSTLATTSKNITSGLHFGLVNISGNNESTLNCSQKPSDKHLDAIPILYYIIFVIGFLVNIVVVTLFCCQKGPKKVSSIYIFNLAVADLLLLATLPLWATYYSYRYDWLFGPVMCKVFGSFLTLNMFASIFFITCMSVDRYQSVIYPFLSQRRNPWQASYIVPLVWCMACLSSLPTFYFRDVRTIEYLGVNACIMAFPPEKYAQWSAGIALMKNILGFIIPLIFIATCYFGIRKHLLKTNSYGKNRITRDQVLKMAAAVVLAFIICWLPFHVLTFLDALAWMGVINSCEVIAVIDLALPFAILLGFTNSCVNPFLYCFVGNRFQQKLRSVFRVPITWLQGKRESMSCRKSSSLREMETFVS

Q: Which IC50 [1] does the source give for `CCCCOC(=O)NS(=O)(=O)c1ccc(CC(C)C)cc1-c1ccc(Cn2c(CC)nc3c(C)cc(C)nc32)cc1` here?
A: 2.1 nM

Q: Which results are given for `CCOc1nc2cccc(C(=O)O)c2n1Cc1ccc(-c2ccccc2-c2nnn[nH]2)cc1`?
A: Ki [1]: 0.17 nM; Ki [2]: > 10000 nM

Q: For `CCCCOC(=O)NS(=O)(=O)c1sc(CC(C)C)cc1-c1ccc(Cn2ccnc2)cc1` [BULOXIBUTID], which Ki [1] is on record?
A: > 10000 nM

Q: With `CCCCOC(=O)NS(=O)(=O)c1ccc(CCC)cc1-c1ccc(Cn2c(CC)nc3c(C)cc(C)nc32)cc1` as the compound, how does the IC50 [1] read?
A: 1.5 nM

Q: With `CC[C@H](C)[C@H](NC(=O)[C@H](Cc1ccc(O)cc1)NC(=O)[C@@H](NC(=O)[C@H](CCCNC(=N)N)NC(=O)[C@@H](N)CC(=O)O)C(C)C)C(=O)N[C@@H](Cc1cnc[nH]1)C(=O)N1CCC[C@H]1C(=O)N[C@@H](Cc1ccccc1)C(=O)O` [ANGIOTENSIN II] as the compound, how does the Ki [1] read?
A: 0.95 nM

Q: With `CCCCc1nc(Cl)c(CO)n1Cc1ccc(-c2ccccc2-c2nnn[nH]2)cc1` [LOSARTAN] as the compound, how does the IC50 [1] read?
A: 12.1 nM

Q: With `COc1ccc2c(c1OCc1ccccc1)C[C@@H](C(=O)O)N(C(=O)C(c1ccccc1)c1ccccc1)C2` [OLODANRIGAN] as the compound, how does the Ki [1] read?
A: 409 nM
